Reference: US20090202997A1, “Cell-Free In Vitro Transcription and Translation of Membrane Proteins into Tethered Planar Lipid Layers” (priority 2005, published 2009)

Tested on: odorant receptor OR5
Assay: IR spectroscopy of OR5/tBLM system upon addition of odorant
Format: binding, rat
Protocol: The activity of incorporated odorant receptors was measured using IR spectroscopy.

CC(C=O)Cc1ccc(C(C)(C)C)cc1 (centres unmarked) [lilial]
signal change of the IR amide I peak (recognition of the odor by the receptor) (1 mM lilial added to tBLM integrated OR5): recognition of the odor by the receptor
reversibility of the lilial/OR5 interaction (rinsing with PBS): can be reversed by rinsing with PBS
